From ChEMBL document CHEMBL4376832, “Changing the Rules of TB-Drug Discovery” (J Med Chem, 2019)
Values after ≈ are worked out from the molar mass of the structure shown.

Assays:
[1] = Inhibition of Mycobacterium phlei DSM-43239 C-terminal ATP-synthase assessed as reduction in luciferase activity incubated for 10 mins in presence of ATP by luminometric method; parameters: species or system Mycolicibacterium phlei DSM 43239 = CCUG 21000
[2] = Inhibition of ATP-synthase (unknown origin); parameters: species or system Homo sapiens
[3] = tested on: Mycobacterium tuberculosis; experiment: Antimycobacterial against GFP-transfected Mycobacterium tuberculosis H37Rv assessed as reduction in GFP protein expression and measured every 2 days for 12 days; type: functional

`COc1nc2ccc(Br)cc2cc1[C@@H](c1ccccc1)[C@@](O)(CCN(C)C)c1cccc2ccccc12` [BEDAQUILINE] gave an IC50 [1] of 20 to 25 nM and an IC50 [2] of over 200000 nM.
`COc1ccc(S(=O)(=O)N2CCCCCC2)cc1NC(=O)Cc1nnc(O)c2ccccc12` gave an MIC [3] of 250 µM (≈ 118 µg/mL).
